# Key:
# Test in all cases: relative viability (nuclei count vs DMSO), 5 days (fraction); higher = more cells survive
# [1] = compound: CC1CC(=O)N(C2=CN=C(N=C2N1C3CCCC3)NC4=C(C=C(C=C4)C(=O)NC5CCN(CC5)C)OC)C [NPK76-II-72-1] + Cc1cc(Nc2cc(N3CCN(C)CC3)nc(Sc3ccc(NC(=O)C4CC4)cc3)n2)n[nH]1 [Tozasertib] (partner 0.1 µM)
# Summary of the method: (§1)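 Lung cancer cell lines were seeded in 1536-well plates and dosed by pin tool the next day, with either a single drug or a fixed anchor-drug dose combined with five library-drug doses (not always all listed) spaced in √10 steps. Five days later, one step fixed the cells and stained their nuclei (final 0.05% Triton X-100, 1% formaldehyde, 1 ug/ml Hoechst), and nuclei were counted on 4× images. Relative viability is the nuclei count in treated wells divided by the count in vehicle wells, and each value is the median of duplicate plates.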
# [2] = compound: CC1CC(=O)N(C2=CN=C(N=C2N1C3CCCC3)NC4=C(C=C(C=C4)C(=O)NC5CCN(CC5)C)OC)C [NPK76-II-72-1] + CS(=O)(=O)CCNCc1ccc(-c2ccc3ncnc(Nc4ccc(OCc5cccc(F)c5)c(Cl)c4)c3c2)o1 [Lapatinib] (partner 2 µM)
# Summary of the method: as §1
# NPK76-II-72-1 + Olaparib = compound: CC1CC(=O)N(C2=CN=C(N=C2N1C3CCCC3)NC4=C(C=C(C=C4)C(=O)NC5CCN(CC5)C)OC)C [NPK76-II-72-1] + O=C(c1cc(Cc2n[nH]c(=O)c3ccccc23)ccc1F)N1CCN(C(=O)C2CC2)CC1 [Olaparib] (partner 8 µM)
# Summary of the method: as §1
# [3] = compound: CC1CC(=O)N(C2=CN=C(N=C2N1C3CCCC3)NC4=C(C=C(C=C4)C(=O)NC5CCN(CC5)C)OC)C [NPK76-II-72-1] + CC(C)C[C@H](NC(=O)[C@H](Cc1ccccc1)NC(=O)c1cnccn1)B(O)O [Bortezomib] (partner 0.002 µM)
# Summary of the method: as §1
Cell Line,relative viability ([1]; first compound 0.01 µM),relative viability ([1]; first compound 0.03162 µM),relative viability ([1]; first compound 0.1 µM),relative viability ([1]; first compound 0.3162 µM),relative viability ([1]; first compound 1 µM),relative viability ([2]; first compound 0.01 µM),relative viability ([2]; first compound 0.03162 µM),relative viability ([2]; first compound 0.1 µM),relative viability ([2]; first compound 0.3162 µM),relative viability ([2]; first compound 1 µM),relative viability (NPK76-II-72-1 + Olaparib; first compound 0.01 µM),relative viability (NPK76-II-72-1 + Olaparib; first compound 0.03162 µM),relative viability (NPK76-II-72-1 + Olaparib; first compound 0.1 µM),relative viability (NPK76-II-72-1 + Olaparib; first compound 0.3162 µM),relative viability (NPK76-II-72-1 + Olaparib; first compound 1 µM),relative viability ([3]; first compound 0.01 µM),relative viability ([3]; first compound 0.03162 µM),relative viability ([3]; first compound 0.1 µM),relative viability ([3]; first compound 0.3162 µM),relative viability ([3]; first compound 1 µM)
EMC-BAC-2,0.298,0.339,0.296,0.294,0.316,0.9,1.05,0.871,0.884,0.912,0.468,0.506,0.51,0.486,0.541,1.06,1.15,0.951,1.01,1.12
LU99A,0.318,0.309,0.309,0.271,0.283,0.965,0.98,1.02,0.857,1.04,0.259,0.244,0.297,0.253,0.285,1.17,1.28,1.23,0.952,1.3
ABC-1,0.185,0.179,0.172,0.21,0.155,1.02,1.19,1.18,1.08,1.31,0.606,0.537,0.764,0.803,1.34,0.272,0.306,0.299,0.254,0.358
NCI-H2347,0.405,0.542,0.507,0.589,0.638,0.95,1.06,0.857,0.717,1.08,0.525,0.632,0.612,0.508,0.658,0.827,1.24,0.697,0.756,1.01
NCI-H1993,0.594,0.633,0.545,0.499,0.627,0.729,0.92,0.906,0.822,0.788,0.96,1.05,1.24,1.07,1.29,1,1.09,0.775,0.729,0.873
NCI-H322M,0.486,0.509,0.496,0.44,0.534,0.515,0.636,0.597,0.612,0.557,0.582,0.828,0.623,0.878,0.791,1.17,1.3,1.24,1.39,1.36
NCI-H838,0.27,0.248,0.278,0.274,0.288,0.951,1.08,1.05,0.971,1.09,0.712,0.846,0.768,0.738,0.805,0.768,0.885,0.988,0.771,0.715
HARA,0.124,0.0912,0.116,0.106,0.108,0.762,0.806,0.578,0.722,0.713,0.888,0.756,0.76,,0.872,1.08,1.2,1.04,1.12,1.22
NCI-H2087,0.284,0.203,0.272,0.254,0.249,1.01,0.999,0.987,0.983,1.05,0.532,0.653,0.548,0.672,0.626,0.941,0.861,0.63,0.737,0.82
NCI-H1437,0.393,0.469,0.391,0.361,0.422,0.769,0.884,0.743,0.716,0.818,0.626,0.666,0.613,0.624,0.624,0.473,0.445,0.425,0.409,0.494
NCI-H650,0.738,0.778,0.713,0.661,0.796,1.17,0.912,0.723,,0.925,0.391,0.316,0.397,0.354,0.489,0.862,0.678,0.729,,1.02
COR-L23,0.195,0.23,0.218,0.182,0.192,0.879,1.02,1.02,1.03,0.929,0.321,0.38,0.34,0.335,0.396,0.942,1,0.889,0.961,0.99
COR-L 105,0.351,0.348,0.305,0.407,0.328,0.404,0.375,0.358,0.367,0.345,0.586,0.795,0.46,0.683,0.794,0.699,0.982,0.848,0.672,1.12
201T,0.884,0.948,0.984,0.939,0.976,0.975,1.07,1.04,1.11,1,0.792,0.826,0.836,0.851,0.839,1.07,1.14,1.08,1.17,1.1
HCC-44,0.875,1.16,0.962,0.795,1.04,0.983,0.991,0.935,0.937,1,0.955,1,0.946,0.935,0.989,0.836,0.877,0.87,0.843,1.03
NCI-H596,0.868,1.07,0.832,0.921,1.04,1,1.14,1.07,0.914,1.09,0.771,0.748,0.68,0.704,0.67,0.838,,0.999,1,0.966

Cell Line,relative viability ([1]; first compound 0.01 µM),relative viability ([1]; first compound 0.03162 µM),relative viability ([1]; first compound 0.1 µM),relative viability ([1]; first compound 0.3162 µM),relative viability ([1]; first compound 1 µM),relative viability ([2]; first compound 0.01 µM),relative viability ([2]; first compound 0.03162 µM),relative viability ([2]; first compound 0.1 µM),relative viability ([2]; first compound 0.3162 µM),relative viability ([2]; first compound 1 µM),relative viability (NPK76-II-72-1 + Olaparib; first compound 0.01 µM),relative viability (NPK76-II-72-1 + Olaparib; first compound 0.03162 µM),relative viability (NPK76-II-72-1 + Olaparib; first compound 0.1 µM),relative viability (NPK76-II-72-1 + Olaparib; first compound 0.3162 µM),relative viability (NPK76-II-72-1 + Olaparib; first compound 1 µM),relative viability ([3]; first compound 0.01 µM),relative viability ([3]; first compound 0.03162 µM),relative viability ([3]; first compound 0.1 µM),relative viability ([3]; first compound 0.3162 µM),relative viability ([3]; first compound 1 µM)
H3255,0.623,0.729,0.734,0.434,0.673,0.263,0.25,0.217,,0.226,0.531,0.552,0.561,0.483,0.592,0.841,0.642,0.647,,1.11
NCI-H647,0.315,0.283,0.423,0.257,0.325,0.932,1.01,,0.916,1.01,0.633,0.48,0.755,0.46,0.661,0.847,1.1,,0.853,1.05
NCI-H2023,0.326,0.366,0.403,0.308,0.44,0.813,1.06,1.13,0.878,1.02,0.469,0.57,0.561,0.425,0.491,0.968,1.09,1.15,1.01,1.23
NCI-H23,0.367,0.386,0.35,0.379,0.378,1.03,1.27,,1.12,0.985,0.228,0.29,0.316,0.255,0.354,0.856,1.22,,1.06,1.12
NCI-H520,0.36,0.437,0.429,0.423,0.487,0.735,0.85,0.912,0.857,0.841,0.294,0.351,0.268,0.385,0.343,0.731,0.766,0.385,0.514,0.544
NCI-H460,0.524,0.529,0.673,0.463,0.597,0.887,0.948,1.21,1.02,0.966,0.441,0.457,0.514,0.426,0.455,1.02,1.26,1.11,1.01,1.18
EKVX,0.335,0.339,0.416,0.379,0.474,0.206,0.193,0.22,0.222,0.236,0.755,0.898,0.735,,1.02,1.01,0.998,1.03,0.637,1.04
EPLC-272H,0.278,,0.281,0.229,0.229,0.905,0.968,1.01,1.04,1.11,0.831,0.825,0.782,0.732,0.765,0.984,0.916,0.773,0.829,0.975
NCI-H2126,0.8,0.812,0.855,0.783,0.888,0.686,0.806,0.755,0.733,0.823,0.903,0.897,0.901,0.855,0.956,1.01,1.16,1.11,1.07,1.16
LXF-289,0.172,0.214,0.181,0.165,0.2,0.881,0.91,0.891,0.934,0.889,0.966,1.07,1.05,1.04,1.07,1.02,1.06,0.955,1.04,1.02
NCI-H2009,0.707,0.766,0.807,0.669,0.841,0.961,1.09,0.888,0.774,1.15,0.652,0.787,0.675,0.686,0.64,1.01,1.1,1.09,0.842,1.24
NCI-H2405,0.723,0.871,0.762,0.743,0.816,1.13,1.11,1.09,1.04,1.09,0.861,0.888,0.908,0.858,0.88,1.01,0.99,0.921,0.753,1.11
NCI-H1755,0.669,0.663,0.526,0.552,0.653,0.958,0.978,0.994,1.02,1.11,0.858,0.915,0.888,0.827,0.893,0.932,0.898,0.95,0.98,1.08
HCC-78,0.446,0.407,0.408,0.368,0.429,,0.642,0.706,,1.01,0.86,0.872,0.476,0.869,0.85,0.532,0.565,0.398,0.52,0.998
LOU-NH91,0.688,0.674,0.628,0.576,0.741,0.746,0.759,0.732,0.777,0.822,0.906,0.926,0.893,0.785,0.991,0.488,0.483,0.463,0.432,0.35
NCI-H3122,0.389,0.425,0.366,0.365,0.465,1.02,1.03,0.966,1.1,1.04,0.6,0.6,0.722,0.653,0.589,1,1.01,0.935,1.03,1.02

# Reference: the supplement of paper PMC10307832
